Experiments:
Format in all cases: functional
Klebsiella aerogenes [1] = assay: Antimicrobial activity against multidrug resistant Enterobacter aerogenes isolate 16 by broth dilution method in presence of 26.3 mg/L efflux pump inhibitor phenylalanine-arginine-beta-naphthylamide
Klebsiella aerogenes [2] = assay: Antimicrobial activity against multidrug resistant Enterobacter aerogenes isolate 17 by broth dilution method in presence of 26.3 mg/L efflux pump inhibitor phenylalanine-arginine-beta-naphthylamide
Klebsiella aerogenes [3] = assay: Antimicrobial activity against multidrug resistant Enterobacter aerogenes isolate 18 by broth dilution method in presence of 26.3 mg/L efflux pump inhibitor phenylalanine-arginine-beta-naphthylamide
Klebsiella aerogenes [4] = assay: Antimicrobial activity against multidrug resistant Enterobacter aerogenes isolate 22 by broth dilution method in presence of 26.3 mg/L efflux pump inhibitor phenylalanine-arginine-beta-naphthylamide
Klebsiella aerogenes [5] = assay: Antimicrobial activity against multidrug resistant Enterobacter aerogenes isolate 23 by broth dilution method in presence of 26.3 mg/L efflux pump inhibitor phenylalanine-arginine-beta-naphthylamide
Klebsiella aerogenes [6] = assay: Antimicrobial activity against multidrug resistant Enterobacter aerogenes isolate 24 by broth dilution method in presence of 26.3 mg/L efflux pump inhibitor phenylalanine-arginine-beta-naphthylamide
Klebsiella aerogenes [7] = assay: Antimicrobial activity against multidrug resistant Enterobacter aerogenes isolate 25 by broth dilution method in presence of 26.3 mg/L efflux pump inhibitor phenylalanine-arginine-beta-naphthylamide
Klebsiella aerogenes [8] = assay: Antimicrobial activity against multidrug resistant Enterobacter aerogenes isolate 26 by broth dilution method in presence of 26.3 mg/L efflux pump inhibitor phenylalanine-arginine-beta-naphthylamide
Klebsiella aerogenes [9] = assay: Antimicrobial activity against multidrug resistant Enterobacter aerogenes isolate 27 by broth dilution method in presence of 26.3 mg/L efflux pump inhibitor phenylalanine-arginine-beta-naphthylamide
Klebsiella pneumoniae [10] = assay: Antimicrobial activity against multidrug resistant Klebsiella pneumoniae isolate 3 by broth dilution method in presence of 26.3 mg/L efflux pump inhibitor phenylalanine-arginine-beta-naphthylamide
Klebsiella pneumoniae [11] = assay: Antimicrobial activity against multidrug resistant Klebsiella pneumoniae isolate 9 by broth dilution method in presence of 26.3 mg/L efflux pump inhibitor phenylalanine-arginine-beta-naphthylamide
Klebsiella pneumoniae [12] = assay: Antimicrobial activity against multidrug resistant Klebsiella pneumoniae isolate 10 by broth dilution method in presence of 26.3 mg/L efflux pump inhibitor phenylalanine-arginine-beta-naphthylamide
Klebsiella pneumoniae [13] = assay: Antimicrobial activity against multidrug resistant Klebsiella pneumoniae isolate 11 by broth dilution method in presence of 26.3 mg/L efflux pump inhibitor phenylalanine-arginine-beta-naphthylamide
Klebsiella pneumoniae [14] = assay: Antimicrobial activity against multidrug resistant Klebsiella pneumoniae isolate 12 by broth dilution method in presence of 26.3 mg/L efflux pump inhibitor phenylalanine-arginine-beta-naphthylamide
Klebsiella pneumoniae [15] = assay: Antimicrobial activity against multidrug resistant Klebsiella pneumoniae isolate 14 by broth dilution method in presence of 26.3 mg/L efflux pump inhibitor phenylalanine-arginine-beta-naphthylamide
Klebsiella pneumoniae [16] = assay: Antimicrobial activity against multidrug resistant Klebsiella pneumoniae isolate 15 by broth dilution method in presence of 26.3 mg/L efflux pump inhibitor phenylalanine-arginine-beta-naphthylamide
Klebsiella pneumoniae [17] = assay: Antimicrobial activity against multidrug resistant Klebsiella pneumoniae isolate 16 by broth dilution method in presence of 26.3 mg/L efflux pump inhibitor phenylalanine-arginine-beta-naphthylamide
Klebsiella aerogenes [18] = assay: Antimicrobial activity against multidrug resistant Enterobacter aerogenes ATCC 15038 by broth dilution method in presence of 26.3 mg/L efflux pump inhibitor phenylalanine-arginine-beta-naphthylamide
Klebsiella aerogenes [19] = assay: Antimicrobial activity against multidrug resistant Enterobacter aerogenes isolate 2 by broth dilution method
Klebsiella aerogenes [20] = assay: Antimicrobial activity against multidrug resistant Enterobacter aerogenes isolate 6 by broth dilution method
Klebsiella aerogenes [21] = assay: Antimicrobial activity against multidrug resistant Enterobacter aerogenes isolate 10 by broth dilution method
Klebsiella aerogenes [22] = assay: Antimicrobial activity against multidrug resistant Enterobacter aerogenes isolate 14 by broth dilution method
Klebsiella aerogenes [23] = assay: Antimicrobial activity against multidrug resistant Enterobacter aerogenes isolate 15 by broth dilution method
Klebsiella aerogenes [24] = assay: Antimicrobial activity against multidrug resistant Enterobacter aerogenes isolate 16 by broth dilution method
Klebsiella aerogenes [25] = assay: Antimicrobial activity against multidrug resistant Enterobacter aerogenes isolate 20 by broth dilution method
Klebsiella aerogenes [26] = assay: Antimicrobial activity against multidrug resistant Enterobacter aerogenes isolate 22 by broth dilution method
Klebsiella aerogenes [27] = assay: Antimicrobial activity against multidrug resistant Enterobacter aerogenes isolate 23 by broth dilution method
Klebsiella aerogenes [28] = assay: Antimicrobial activity against multidrug resistant Enterobacter aerogenes isolate 24 by broth dilution method
Klebsiella aerogenes [29] = assay: Antimicrobial activity against multidrug resistant Enterobacter aerogenes isolate 26 by broth dilution method
Klebsiella pneumoniae [30] = assay: Antimicrobial activity against multidrug resistant Klebsiella pneumoniae ATCC 11296 by broth dilution method
Klebsiella pneumoniae [31] = assay: Antimicrobial activity against multidrug resistant Klebsiella pneumoniae isolate 2 by broth dilution method
Klebsiella pneumoniae [32] = assay: Antimicrobial activity against multidrug resistant Klebsiella pneumoniae isolate 3 by broth dilution method
Klebsiella pneumoniae [33] = assay: Antimicrobial activity against multidrug resistant Klebsiella pneumoniae isolate 4 by broth dilution method
Klebsiella pneumoniae [34] = assay: Antimicrobial activity against multidrug resistant Klebsiella pneumoniae isolate 6 by broth dilution method
Klebsiella pneumoniae [35] = assay: Antimicrobial activity against multidrug resistant Klebsiella pneumoniae isolate 8 by broth dilution method
Klebsiella pneumoniae [36] = assay: Antimicrobial activity against multidrug resistant Klebsiella pneumoniae isolate 11 by broth dilution method
Klebsiella pneumoniae [37] = assay: Antimicrobial activity against multidrug resistant Klebsiella pneumoniae isolate 12 by broth dilution method
Klebsiella pneumoniae [38] = assay: Antimicrobial activity against multidrug resistant Klebsiella pneumoniae isolate 14 by broth dilution method
Klebsiella pneumoniae [39] = assay: Antimicrobial activity against multidrug resistant Klebsiella pneumoniae isolate 15 by broth dilution method
Klebsiella pneumoniae [40] = assay: Antimicrobial activity against multidrug resistant Klebsiella pneumoniae isolate 16 by broth dilution method
Klebsiella aerogenes [41] = assay: Antimicrobial activity against multidrug resistant Enterobacter aerogenes ATCC 15038 by broth dilution method
Klebsiella aerogenes [42] = assay: Antimicrobial activity against multidrug resistant Enterobacter aerogenes isolate 1 by broth dilution method in presence of 26.3 mg/L efflux pump inhibitor phenylalanine-arginine-beta-naphthylamide
Klebsiella aerogenes [43] = assay: Antimicrobial activity against multidrug resistant Enterobacter aerogenes isolate 2 by broth dilution method in presence of 26.3 mg/L efflux pump inhibitor phenylalanine-arginine-beta-naphthylamide
Klebsiella aerogenes [44] = assay: Antimicrobial activity against multidrug resistant Enterobacter aerogenes isolate 3 by broth dilution method in presence of 26.3 mg/L efflux pump inhibitor phenylalanine-arginine-beta-naphthylamide
Klebsiella aerogenes [45] = assay: Antimicrobial activity against multidrug resistant Enterobacter aerogenes isolate 4 by broth dilution method in presence of 26.3 mg/L efflux pump inhibitor phenylalanine-arginine-beta-naphthylamide
Klebsiella aerogenes [46] = assay: Antimicrobial activity against multidrug resistant Enterobacter aerogenes isolate 7 by broth dilution method in presence of 26.3 mg/L efflux pump inhibitor phenylalanine-arginine-beta-naphthylamide
Klebsiella aerogenes [47] = assay: Antimicrobial activity against multidrug resistant Enterobacter aerogenes isolate 11 by broth dilution method in presence of 26.3 mg/L efflux pump inhibitor phenylalanine-arginine-beta-naphthylamide
Klebsiella aerogenes [48] = assay: Antimicrobial activity against multidrug resistant Enterobacter aerogenes isolate 12 by broth dilution method in presence of 26.3 mg/L efflux pump inhibitor phenylalanine-arginine-beta-naphthylamide
Klebsiella aerogenes [49] = assay: Antimicrobial activity against multidrug resistant Enterobacter aerogenes isolate 14 by broth dilution method in presence of 26.3 mg/L efflux pump inhibitor phenylalanine-arginine-beta-naphthylamide

Measured: MIC

CCn1cc(C(=O)O)c(=O)c2cc(F)c(N3CCNCC3)cc21 [NORFLOXACIN]
64 µg/mL: Klebsiella pneumoniae [13] | Klebsiella aerogenes [20] | Klebsiella pneumoniae [36]
4 µg/mL: Klebsiella pneumoniae [31]
2 µg/mL: Klebsiella pneumoniae [35]
≤ 0.06 µg/mL: Klebsiella pneumoniae [11]
0.5 µg/mL: Klebsiella pneumoniae [17] | Klebsiella pneumoniae [30]
512 µg/mL: Klebsiella aerogenes [22] | Klebsiella aerogenes [23] | Klebsiella aerogenes [24] | Klebsiella aerogenes [25] | Klebsiella aerogenes [27] | Klebsiella aerogenes [28] | Klebsiella aerogenes [45] | Klebsiella aerogenes [48] | Klebsiella aerogenes [49]
0.25 µg/mL: Klebsiella pneumoniae [14] | Klebsiella pneumoniae [15]
0.125 µg/mL: Klebsiella aerogenes [18] | Klebsiella aerogenes [41]
8 µg/mL: Klebsiella pneumoniae [37] | Klebsiella pneumoniae [38]
1 µg/mL: Klebsiella pneumoniae [34] | Klebsiella pneumoniae [40]
128 µg/mL: Klebsiella aerogenes [1] | Klebsiella aerogenes [2] | Klebsiella aerogenes [3] | Klebsiella aerogenes [4] | Klebsiella aerogenes [6] | Klebsiella aerogenes [7] | Klebsiella aerogenes [8] | Klebsiella aerogenes [9] | Klebsiella pneumoniae [10] | Klebsiella pneumoniae [12] | Klebsiella pneumoniae [32] | Klebsiella pneumoniae [33]
256 µg/mL: all other assays above

C[C@@H]1CN(c2c(F)c(N)c3c(=O)c(C(=O)O)cn(C4CC4)c3c2F)C[C@H](C)N1 [SPARFLOXACIN]
128 µg/mL: Klebsiella aerogenes [19] | Klebsiella aerogenes [22] | Klebsiella aerogenes [23] | Klebsiella aerogenes [27]
0.125 µg/mL: Klebsiella aerogenes [20] | Klebsiella pneumoniae [35] | Klebsiella pneumoniae [40]
32 µg/mL: Klebsiella aerogenes [29] | Klebsiella pneumoniae [39]
≤ 0.06 µg/mL: Klebsiella pneumoniae [11] | Klebsiella pneumoniae [14] | Klebsiella pneumoniae [15] | Klebsiella pneumoniae [17] | Klebsiella aerogenes [18] | Klebsiella pneumoniae [30] | Klebsiella pneumoniae [34] | Klebsiella pneumoniae [37] | Klebsiella aerogenes [41]
64 µg/mL: Klebsiella aerogenes [24]
16 µg/mL: Klebsiella aerogenes [2] | Klebsiella aerogenes [3] | Klebsiella aerogenes [6]
256 µg/mL: Klebsiella aerogenes [21] | Klebsiella aerogenes [25] | Klebsiella aerogenes [26] | Klebsiella aerogenes [28]
2 µg/mL: Klebsiella pneumoniae [12] | Klebsiella pneumoniae [13] | Klebsiella pneumoniae [31] | Klebsiella pneumoniae [38]
4 µg/mL: Klebsiella aerogenes [5] | Klebsiella aerogenes [8] | Klebsiella pneumoniae [10] | Klebsiella aerogenes [46] | Klebsiella aerogenes [47]
8 µg/mL: all other assays above
